The values that follow come from patent publication US10030027B2, “Soluble guanylate cyclase stimulators” (MERCK SHARP & DOHME CORP., priority 2015, dated 2018).

A word on the Ki: it is the equilibrium dissociation constant of an inhibitor or competing ligand from its target.

In assay [1] the target is human recombinant sGC enzyme (Homo sapiens (Human), UniProt Q02108+Q02153). Kind of assay: Size Exclusion Chromatography (SEC) competition binding assay using [3H] Ex-77B as the radioligand. The note with it: [3H] Ex-77B radioligand, 24 hours at 37° C. Put shortly:
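Recombinant human sGC binding measured by competition against tritiated Ex-77B radioligand, with non-specific binding defined by 1 μM unlabeled Ex-77B.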
On the technique in general: In gel filtration, larger molecules generally elute earlier.

The next assay concerns the target sGC α1/β1 heterodimer (Homo sapiens (Human), UniProt Q02108+Q02153). Kind of assay: Cell-based sGC functional assay (cyclic GMP assay for sGC activator: CASA assay). Details: % Activation: concentration or dose not given beside the values. The note with it: CHO-K1/sGC cells; for Emax: CHO-K1, activity expressed as percentage of compound A (standard), read-out: % Activation; for EC50: inflection point, 4P fit, read-out: IP; for % Activation: activity expressed as percentage of compound A (standard). In outline:
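CHO-K1 cells stably expressing sGC α1/β1 were pre-incubated with or without 1 μM DETA-NO (30 min, 25 °C), then exposed to compounds for 1 hr at 37 °C with 0.5 mM IBMX. Intracellular cGMP was read by HTRF and expressed as a percentage of a reference heme-dependent activator's maximum.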

As to `CC1(c2nc(-c3ccc(C(=O)O)cc3)co2)C(=O)Nc2nc(-c3nn(Cc4ccccc4F)c4ncccc34)nc(N)c21` (centres unmarked) [Example 146A, 4-(2-{4-amino-2-[1-(2-fluorobenzyl)-1H-pyrazolo[3,4-b]pyridin-3-yl]-5-methyl-6-oxo-6,7-dihydro-5H-pyrrolo [2,3-d]pyrimidin-5-yl}-1,3-oxazol-4-yl)benzoic acid], the Ki in assay [1] was 0.062 nM. Besides, on sGC α1/β1 heterodimer, the Emax was determined as 82.1% and the EC50 was determined as 94 nM.
Taken in the same sequence, the figures for `CC(C)(Cc1coc(C2(C)C(=O)Nc3nc(-c4nn(CC5CCCCC5)c5cc(Cl)ccc45)nc(N)c32)n1)C(=O)O` (centres unmarked) [Example 159A, 3-(2-{4-amino-2-[6-chloro-1-(cyclohexylmethyl)-1H-indazol-3-yl]-5-methyl-6-oxo-6,7-dihydro-5H-pyrrolo[2,3-d]pyrimidin-5-yl}-1,3-oxazol-4-yl)-2,2-dimethyl-propanoic acid] were 0.125 nM, 113% and 221 nM.
Taken in the same sequence, the figures for `CC1(c2nc(C[C@@H](N)C(=O)O)co2)C(=O)Nc2nc(-c3nn(Cc4ccccc4F)c4cc(Cl)ccc34)nc(N)c21` (single isomer, unassigned) [Example 172A, 3-(2-{4-amino-2-[6-chloro-1-(2-fluorobenzyl)-1H-indazol-3-yl]-5-methyl-6-oxo-6,7-dihydro-5H-pyrrolo[2,3-d]pyrimidin-5-yl}-1,3-oxazol-4-yl)-D-alanine] were 0.098 nM, 92.7% and 1030 nM.
The like results for `Cc1oc(C2(C)C(=O)Nc3nc(-c4nn(Cc5ccccc5F)c5cc(Cl)ccc45)nc(N)c32)nc1CC(C)(C)C(=O)O` (centres unmarked) [Example 170B, 3-(2-{4-amino-2-[6-chloro-1-(2 fluorobenzyl)-1H-indazol-3-yl]-5-methyl-6-oxo-6,7-dihydro-5H-pyrrolo[2,3-d]pyrimidin-5-yl}-5-methyl-1,3-oxazol-4-yl)-2,2-dimethylpropanoic acid] were, in that order, 0.118 nM, 130% and 655 nM.
Consider `CCCCn1nc(-c2nc(N)c3c(n2)NC(=O)C3(C)c2ccc(CC(C)(C)C(=O)O)cc2)c2ccc(Cl)cc21` (centres unmarked) [Example 37B, 3-{4-[4-amino-2-(1-butyl-6-chloro-1H-indazol-3-yl)-5-methyl-6-oxo-6,7-dihydro-5H-pyrrolo[2,3-d]pyrimidin-5-yl]phenyl}-2,2-dimethylpropanoic acid], for which the Ki in assay [1] turned out to be 0.484 nM. On sGC α1/β1 heterodimer, the Emax was 96% and the EC50 is 762 nM.
The like results for `CC(Cc1ccc(C2(C)C(=O)Nc3nc(-c4nn(CCCC(F)(F)F)c5ncccc45)nc(N)c32)cc1)C(=O)O` (centres unmarked) [Example 17AB, 3-(4-{4-amino-5-methyl-6-oxo-2-[1-(4,4,4-trifluorobutyl)-1H-pyrazolo[3,4-b]pyridin-3-yl]-6,7-dihydro-5H-pyrrolo[2,3-d]pyrimidin-5-yl}phenyl)-2-methylpropanoic acid] were, in that order, 0.936 nM, 77% and 3780 nM.
The like results for `C[C@@]1(c2nc(CCC(=O)O)cs2)C(=O)Nc2nc(-c3nn(CCCC(F)(F)F)c4ncccc34)nc(N)c21` [Example 88B, (S)-3-(2-{4-amino-5-methyl-6-oxo-2-[1-(4,4,4-trifluorobutyl)-1H-pyrazolo[3,4-b]pyridin-3-yl]-6,7-dihydro-5H-pyrrolo[2,3-d]pyrimidin-5-yl}-1,3-thiazol-4-yl)propanoic acid] were, in that order, 0.848 nM, 88% and 1250 nM.
The like results for `CC(C)(Cc1nc(C2(C)C(=O)Nc3nc(-c4nn(Cc5ccccc5F)c5cc(Cl)ccc45)nc(N)c32)cs1)C(=O)O` (centres unmarked) [Example 142B, 3-(4-{4-amino-2-[6-chloro-1-(2-fluoro-benzyl)-1H-indazol-3-yl]-5-methyl-6-oxo-6,7-dihydro-5H-pyrrolo[2,3-d]pyrimidin-5-yl}-1,3-thiazol-2-yl)-2,2-dimethyl-propanoic acid] were, in that order, 0.183 nM, 109% and 264 nM.
For the molecule `CC1(c2nc3cc(C(=O)O)ccc3o2)C(=O)Nc2nc(-c3nn(Cc4ccccc4F)c4cc(Cl)ccc34)nc(N)c21` (centres unmarked) [Example 168B, 2-{4-amino-2-[6-chloro-1-(2-fluorobenzyl)-1H-indazol-3-yl]-5-methyl-6-oxo-6,7-dihydro-5H-pyrrolo[2,3-d]pyrimidin-5-yl}-1,3-benzoxazole-5-carboxylic acid], in assay [1], the Ki was 0.164 nM. Also, at sGC α1/β1 heterodimer, the Emax was determined as 141% and the EC50 came to 207 nM.
As for `CC1CCC(Cn2nc(-c3nc(N)c4c(n3)NC(=O)C4(C)c3nc(CC(C)(C)C(=O)O)co3)c3ccccc32)CC1` (single isomer, unassigned) [Example 231AB, 3-{2-[4-amino-5-methyl-2-{1-[4-methylcyclo-hexylmethyl]-1H-indazol-3-yl}-6-oxo-6,7-dihydro-5H-pyrrolo[2,3-d]pyrimidin-5-yl]-1,3-oxazol-4-yl}-2,2-dimethyl-propanoic acid], the Ki in assay [1] was determined as 0.087 nM. At sGC α1/β1 heterodimer, the “% Activation” value is 127.9% and the EC50 turned out to be 529 nM.
As to `CC1(N2CCC(CCC(=O)O)C2)C(=O)Nc2nc(-c3nn(Cc4ccccc4F)c4cc(Cl)ccc34)nc(N)c21` (single isomer, unassigned) [Example 261D, 3-[1-{4-Amino-2-[6-chloro-1-(2-fluorobenzyl)-1H-indazol-3-yl]-5-methyl-6-oxo-6,7-dihydro-5H-pyrrolo[2,3-d]pyrimidin-5-yl}pyrrolidin-3-yl]propanoic acid], in assay [1], the Ki stood at 0.187 nM. On sGC α1/β1 heterodimer, the “% Activation” value is 103.8% and the EC50 came to 444 nM.
As to `CC1(N2CCC(CCC(=O)O)C2)C(=O)Nc2nc(-c3nn(Cc4ccccc4F)c4cc(Cl)ccc34)nc(N)c21` (single isomer, unassigned) [Example 261C, 3-[1-{4-Amino-2-[6-chloro-1-(2-fluorobenzyl)-1H-indazol-3-yl]-5-methyl-6-oxo-6,7-dihydro-5H-pyrrolo[2,3-d]pyrimidin-5-yl}pyrrolidin-3-yl]propanoic acid], the Ki in assay [1] amounted to 0.074 nM. Besides, the EC50 on sGC α1/β1 heterodimer amounted to 293 nM.
Turning to `CC1(c2nc3cc(C(=O)O)ccc3s2)C(=O)Nc2nc(-c3nn(Cc4ccccc4F)c4cc(Cl)ccc34)nc(N)c21` (centres unmarked) [Example 130A, 2-{4-amino-2-[6-chloro-1-(2-fluorobenzyl)-1H-indazol-3-yl]-5-methyl-6-oxo-6,7-dihydro-5H-pyrrolo[2,3-d]pyrimidin-5-yl}-1,3-benzothiazole-5-carboxylic acid], the Ki in assay [1] amounted to 0.184 nM. In addition, at sGC α1/β1 heterodimer, the Emax was 116% and the EC50 was 1230 nM.
The like results for `CC1(c2nc(CCC(F)(F)C(=O)O)co2)C(=O)Nc2nc(-c3nn(Cc4cccc(F)c4)c4cc(F)ccc34)nc(N)c21` (centres unmarked) [Example 135A, 4-(2-{4-amino-2-[6-fluoro-1-(3-fluorobenzyl)-1H-indazol-3-yl]-5-methyl-6-oxo-6,7-dihydro-5H-pyrrolo[2,3-d]pyrimidin-5-yl}-1,3-oxazol-4-yl)-2,2-difluorobutanoic acid] were, in that order, 0.275 nM, 92.9% and 254 nM.
Taken in the same sequence, the figures for `CCCCn1nc(-c2nc(N)c3c(n2)NC(=O)C3(C)c2cn(CCC(=O)O)nn2)c2ccc(Cl)cc21` (centres unmarked) [Example 36B, 3-{4-[4-amino-2-(1-butyl-6-chloro-1H-indazol-3-yl)-5-methyl-6-oxo-6,7-dihydro-5H-pyrrolo[2,3-d]pyrimidin-5-yl]-1H-1,2,3-triazol-1-yl}propanoic acid] were 0.908 nM, 105% and 916 nM.
The like results for `CC(C)(Cc1coc(C2(C)C(=O)Nc3nc(-c4nn(Cc5ccc(F)cc5)c5cc(Cl)ccc45)nc(N)c32)n1)C(=O)O` (centres unmarked) [Example 173A, 3-(2-{4-amino-2-[6-chloro-1-(4-fluorobenzyl)-1H-indazol-3-yl]-5-methyl-6-oxo-6,7-dihydro-5H-pyrrolo[2,3-d]pyrimidin-5-yl}-1,3-oxazol-4-yl)-2,2-dimethyl-propanoic acid] were, in that order, 0.252 nM, 83.4% and 557 nM.
Regarding `CC(C)(Cc1csc([C@]2(C)C(=O)Nc3nc(-c4nn(Cc5cccc(F)c5F)c5cc(F)ccc45)nc(N)c32)n1)C(=O)O` [Example 199A, (S)-3-(2-{4-amino-2-[1-(2,3-difluorobenzyl)-6-fluoro-1H-indazol-3-yl]-5-methyl-6-oxo-6,7-dihydro-5H-pyrrolo[2,3-d]pyrimidin-5-yl}-1,3-thiazol-4-yl)-2,2-dimethyl-propanoic acid], the Ki in assay [1] is 0.07 nM. Moreover, on sGC α1/β1 heterodimer, the Emax came to 108% and the EC50 came to 66 nM.
On to `CC1CCC(Cn2nc(-c3nc(N)c4c(n3)NC(=O)[C@@]4(C)c3nc(CC(C)(C)C(=O)O)cs3)c3ccc(F)cc32)CC1` (single isomer, unassigned) [Example 136AA], for which the Ki in assay [1] was found to be 0.252 nM. On sGC α1/β1 heterodimer, the Emax stood at 78.2% and the EC50 turned out to be 11 nM.
